Assay results taken from publication PMC11684667 (Molecular cell, 2023).
Non-standard residues stand in square brackets, D forms with d. No end group written: not given here. pS = N[C@@H](COP(=O)(O)O)C(=O)O

T1: Human CK1δ catalytic domain (residues 1–294) (human, UniProt P48730 1-294)
T1 sequence: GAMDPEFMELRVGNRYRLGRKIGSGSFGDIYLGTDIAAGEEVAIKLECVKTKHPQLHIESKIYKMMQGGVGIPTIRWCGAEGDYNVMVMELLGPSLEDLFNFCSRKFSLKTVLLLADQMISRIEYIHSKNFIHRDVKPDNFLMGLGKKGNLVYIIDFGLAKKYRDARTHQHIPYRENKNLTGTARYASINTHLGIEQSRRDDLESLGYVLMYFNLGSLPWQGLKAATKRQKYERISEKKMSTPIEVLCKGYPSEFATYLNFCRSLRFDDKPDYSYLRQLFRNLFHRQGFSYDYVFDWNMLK

B1: human PER2 4pFASP peptide (peptide)
peptide: GKAE[pS]VA[pS]LT[pS]QC[pS]YA

Legend:
CK1δ ΔC = assay: NMR kinase assay monitoring priming phosphorylation at S662; type: biochemical, human; settings: 3-hr real-time NMR kinase assay, 0.2 mM 15N-FASP, 2.5 mM ATP, 1 µM CK1δ ΔC, 25°C, SOFAST HMQC
[1] = molecular target: T1, Human CK1δ catalytic domain (residues …); assay: crystal structure

| Molecule | fraction of primed FASP (pS662), completion of priming (CK1δ ΔC) | binding result [1] |
| --- | --- | --- |
| WT FASP: wild-type recombinant FASP peptide (residues 645–687) from human PER2 (GAMDPEFWRKKKTGVGTHLTSLALPGKAESVASLTSQCSYSSTIVHVGDKKPQPE; left off: His-NusA, N-terminal, cleaved) | approximately 50% |  |
| B1 |  | binds |
